{
  "source": "patent US12110287B2",
  "about": "“Heterocyclic derivatives as Nav1.7 and Nav1.8 blockers” (RaQualia Pharma Inc., priority 2018, dated 2024)",
  "key": {"human Nav1.5 channels": {"molecular_target": "T1, human Nav1.5 channels (Homo sapiens, UniProt Q14524)", "T1 construct": "expressed in transfected cells; host or cells: HEK293 cells", "T1 sequence (Q14524 whole entry)": "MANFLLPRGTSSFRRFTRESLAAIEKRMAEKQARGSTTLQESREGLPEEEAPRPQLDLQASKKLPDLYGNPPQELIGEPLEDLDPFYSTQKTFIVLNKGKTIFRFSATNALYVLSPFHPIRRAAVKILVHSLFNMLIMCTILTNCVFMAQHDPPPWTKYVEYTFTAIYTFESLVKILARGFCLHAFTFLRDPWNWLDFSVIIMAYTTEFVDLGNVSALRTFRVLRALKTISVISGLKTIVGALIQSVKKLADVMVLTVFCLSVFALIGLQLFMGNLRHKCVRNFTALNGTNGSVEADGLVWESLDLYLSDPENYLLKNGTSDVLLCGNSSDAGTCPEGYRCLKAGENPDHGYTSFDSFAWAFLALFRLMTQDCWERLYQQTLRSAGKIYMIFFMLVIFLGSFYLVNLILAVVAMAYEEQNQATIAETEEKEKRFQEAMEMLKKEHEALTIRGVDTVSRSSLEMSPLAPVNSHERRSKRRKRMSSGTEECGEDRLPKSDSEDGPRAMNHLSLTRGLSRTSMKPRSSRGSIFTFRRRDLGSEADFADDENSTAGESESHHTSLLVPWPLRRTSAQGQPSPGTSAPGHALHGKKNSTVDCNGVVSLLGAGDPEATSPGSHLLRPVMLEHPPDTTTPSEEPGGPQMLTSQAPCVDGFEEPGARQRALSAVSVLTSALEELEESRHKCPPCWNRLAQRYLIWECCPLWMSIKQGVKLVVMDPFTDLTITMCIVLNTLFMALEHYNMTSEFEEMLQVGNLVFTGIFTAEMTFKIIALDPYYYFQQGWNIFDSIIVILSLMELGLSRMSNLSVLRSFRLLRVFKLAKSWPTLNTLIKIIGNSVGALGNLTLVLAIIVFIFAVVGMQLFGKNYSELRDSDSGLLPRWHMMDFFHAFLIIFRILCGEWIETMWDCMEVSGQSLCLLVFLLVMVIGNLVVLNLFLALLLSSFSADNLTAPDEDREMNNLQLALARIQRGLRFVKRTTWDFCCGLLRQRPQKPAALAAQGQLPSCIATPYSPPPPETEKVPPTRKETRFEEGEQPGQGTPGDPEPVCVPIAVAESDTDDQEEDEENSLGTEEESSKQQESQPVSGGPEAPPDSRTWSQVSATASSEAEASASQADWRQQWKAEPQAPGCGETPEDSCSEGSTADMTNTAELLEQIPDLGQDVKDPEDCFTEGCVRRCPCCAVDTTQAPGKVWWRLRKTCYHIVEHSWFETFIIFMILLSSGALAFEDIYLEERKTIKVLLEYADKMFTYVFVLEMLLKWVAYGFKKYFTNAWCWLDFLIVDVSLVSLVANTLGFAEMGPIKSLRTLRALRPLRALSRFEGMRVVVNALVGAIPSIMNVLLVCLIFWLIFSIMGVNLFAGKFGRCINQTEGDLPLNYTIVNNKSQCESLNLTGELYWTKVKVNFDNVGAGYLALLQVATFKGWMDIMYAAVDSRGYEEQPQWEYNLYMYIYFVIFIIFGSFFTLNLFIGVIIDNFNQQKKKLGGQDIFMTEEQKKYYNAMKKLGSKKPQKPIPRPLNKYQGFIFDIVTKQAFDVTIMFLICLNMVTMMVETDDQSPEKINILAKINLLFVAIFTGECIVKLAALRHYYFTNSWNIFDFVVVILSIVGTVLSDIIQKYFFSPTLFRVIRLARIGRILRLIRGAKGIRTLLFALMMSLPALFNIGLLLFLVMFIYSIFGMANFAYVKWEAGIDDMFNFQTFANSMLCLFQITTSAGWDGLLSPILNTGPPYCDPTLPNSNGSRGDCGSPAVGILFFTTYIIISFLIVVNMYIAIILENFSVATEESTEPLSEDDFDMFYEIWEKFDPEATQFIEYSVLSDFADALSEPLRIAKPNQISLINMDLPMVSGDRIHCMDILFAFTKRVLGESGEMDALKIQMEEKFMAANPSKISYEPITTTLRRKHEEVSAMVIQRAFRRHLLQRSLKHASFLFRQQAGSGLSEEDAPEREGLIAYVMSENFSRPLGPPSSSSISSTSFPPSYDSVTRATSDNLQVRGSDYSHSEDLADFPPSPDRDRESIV", "test": "FRET assay (FDSS membrane potential)", "format": "cell-based", "conditions": "HEK293 cells expressing human Nav1.5 channels, read-out: activity (IC50) against Nav1.5", "method": "(§1) This screen is used to determine the effects of compounds on human Nav1.8, and human Nav1.5 channels, utilizing the cell imaging technology by Hamamatsu Photonics's Functional Drug Screening System (FDSS). The changes of membrane potential are monitored with fluorescent membrane potential dye pair, DiSBAC2(3) and CC2-DMPE, using FRET technology.\n(§2) HEK293 cells expressing human Nav1.8 channels or human Nav1.5 channels are grown in T225 flasks, in a 5% CO2 humidified incubator to about 80% confluence. […]\n(§3) The data is analyzed and reported as normalized ratios of intensities measured in the 465 nm and 575 nm channels. The process of calculating these ratios is performed as follows: FR=(FI465 Max/FI575 Min)−(FI465B/FI575B) [Math.2] • “FR”=fluorescence ratio • “FI465B”=the mean of fluorescence intensity as baseline (before Na^+ ligand addition) at 465 nm • “FI575B”=the mean of fluorescence intensity as baseline (before Na^+ ligand addition) at 575 nm • “FI465Max”=maximum fluorescence intensity at 465 nm after Na^+ stimulation • “FI575Min”=minimum fluorescence intensity at 575 nm after Na^+ stimulation Inhibition (%)=100−(FR of each well)−(median FR in positive controls)/(median FR in negative controls)−(median FR in positive controls)×100 [Math.3] […]"}, "human Nav1.8 channels": {"molecular_target": "T2, human Nav1.8 channels (Homo sapiens, UniProt Q9Y5Y9)", "T2 construct": "expressed in transfected cells; host or cells: HEK293 cells", "T2 sequence (Q9Y5Y9 whole entry)": "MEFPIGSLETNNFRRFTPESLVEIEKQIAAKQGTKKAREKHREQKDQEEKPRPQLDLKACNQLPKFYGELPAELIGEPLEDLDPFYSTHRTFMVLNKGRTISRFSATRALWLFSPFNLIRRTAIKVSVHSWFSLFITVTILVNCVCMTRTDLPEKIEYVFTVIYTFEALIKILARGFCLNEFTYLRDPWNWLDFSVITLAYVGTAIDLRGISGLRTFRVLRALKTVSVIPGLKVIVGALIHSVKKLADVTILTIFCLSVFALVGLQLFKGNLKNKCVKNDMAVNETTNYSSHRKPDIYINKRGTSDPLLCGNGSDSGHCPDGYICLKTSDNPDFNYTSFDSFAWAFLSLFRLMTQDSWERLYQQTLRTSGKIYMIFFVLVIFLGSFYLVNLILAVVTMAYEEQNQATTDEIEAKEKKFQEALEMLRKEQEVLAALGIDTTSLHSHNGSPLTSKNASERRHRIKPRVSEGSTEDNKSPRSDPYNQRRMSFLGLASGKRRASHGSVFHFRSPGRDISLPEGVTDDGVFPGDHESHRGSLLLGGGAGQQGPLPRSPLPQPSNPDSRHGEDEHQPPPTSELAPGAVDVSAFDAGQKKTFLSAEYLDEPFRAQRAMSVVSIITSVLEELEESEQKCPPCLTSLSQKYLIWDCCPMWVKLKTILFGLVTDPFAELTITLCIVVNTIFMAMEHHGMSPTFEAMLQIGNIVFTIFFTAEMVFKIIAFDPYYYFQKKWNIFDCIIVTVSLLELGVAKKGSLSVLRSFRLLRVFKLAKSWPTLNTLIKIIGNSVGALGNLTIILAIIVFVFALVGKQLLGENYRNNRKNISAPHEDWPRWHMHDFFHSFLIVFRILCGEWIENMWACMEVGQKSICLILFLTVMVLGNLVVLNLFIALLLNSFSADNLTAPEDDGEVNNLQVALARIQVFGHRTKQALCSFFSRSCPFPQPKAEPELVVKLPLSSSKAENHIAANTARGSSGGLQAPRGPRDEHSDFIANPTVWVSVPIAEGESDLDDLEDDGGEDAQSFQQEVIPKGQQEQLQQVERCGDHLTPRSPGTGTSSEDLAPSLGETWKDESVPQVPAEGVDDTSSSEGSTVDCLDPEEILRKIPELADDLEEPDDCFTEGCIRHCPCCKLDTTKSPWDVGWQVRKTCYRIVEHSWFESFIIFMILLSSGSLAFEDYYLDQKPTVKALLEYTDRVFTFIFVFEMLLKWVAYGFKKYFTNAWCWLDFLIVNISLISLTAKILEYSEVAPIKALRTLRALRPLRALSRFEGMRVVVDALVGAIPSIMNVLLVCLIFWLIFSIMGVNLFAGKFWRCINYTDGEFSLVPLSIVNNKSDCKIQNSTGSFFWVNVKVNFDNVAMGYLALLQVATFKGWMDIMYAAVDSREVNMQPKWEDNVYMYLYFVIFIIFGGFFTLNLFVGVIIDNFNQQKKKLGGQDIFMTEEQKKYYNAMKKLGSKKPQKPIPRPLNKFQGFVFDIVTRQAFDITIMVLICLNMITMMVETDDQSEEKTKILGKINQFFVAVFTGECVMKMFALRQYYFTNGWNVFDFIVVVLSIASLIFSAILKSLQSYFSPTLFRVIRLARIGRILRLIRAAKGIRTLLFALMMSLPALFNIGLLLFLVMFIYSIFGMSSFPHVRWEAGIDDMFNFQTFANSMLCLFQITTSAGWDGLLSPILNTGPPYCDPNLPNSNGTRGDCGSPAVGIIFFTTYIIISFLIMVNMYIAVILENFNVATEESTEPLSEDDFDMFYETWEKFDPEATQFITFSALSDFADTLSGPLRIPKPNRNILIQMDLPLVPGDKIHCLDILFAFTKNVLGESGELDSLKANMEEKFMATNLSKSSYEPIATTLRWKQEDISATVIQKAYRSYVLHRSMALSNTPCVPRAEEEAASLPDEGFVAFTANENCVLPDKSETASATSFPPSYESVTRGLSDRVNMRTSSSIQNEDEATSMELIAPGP", "test": "FRET assay (FDSS membrane potential)", "format": "cell-based", "conditions": "HEK293 cells expressing human Nav1.8 channels, read-out: IC50 against Nav1.8", "method": "as §1, §2, §3"}},
  "data": [
    {"smiles": "O=C(N[C@@H]1CCCN(c2ncc(C(F)(F)F)cc2Cl)C1)c1ccnc(NC(=O)C2CC2)c1", "note": "[Example 7]", "values": [
      {"measurement": "IC50", "setting": "human Nav1.5 channels", "result": "> 30", "unit": "µM"},
      {"measurement": "IC50", "setting": "human Nav1.8 channels", "result": 2, "unit": "µM"}
    ]}
  ]
}
